Test results from US9982005B2, “Macrolides and methods of their preparation and use” (President and Fellows of Harvard College, priority 2013, dated 2018).
≈ marks a conversion by molar mass, not a printed value. Read-outs that look alike come from different tables or passages of the source.

Experiments:
Assay type in all cases: cell-based
E. coli strains = experiment: MIC against E. coli strains (Table M7); settings: for MIC: Escherichia coli, ATCC25922, E. coli ATCC 25922
Text: (§1) We have collected MIC data for a total of 50 novel macrolides that this platform has produced against over 21 unique strains of B. subtilis, E. coli, S. aureus, S. pneumoniae, and H. influenzae, including several multidrug-resistant strains, with a special focus on macrolide resistant mechanisms (vide supra). Azithromycin was included as a control macrolide. CLSI standard procedures for broth dilution MIC determination were used. […] These genotypes can be constitutive or inducible. The finding that C4-epi (unnatural) isomers of the “azaketolide” macrolide class have enhanced activities relative to C4 natural isomers is very exciting.

S. aureus strains = experiment: MIC against S. aureus strains (Table M7); settings: for MIC: Staphylococcus aureus
Text: as §1

S. pneumoniae strains = experiment: MIC against S. pneumoniae strains (Tables M7, M8); settings: for MIC: Streptococcus pneumoniae
Text: CLSI standard procedures for broth dilution MIC determination were used. […] These genotypes can be constitutive or inducible.

E. faecalis strains = experiment: MIC against E. faecalis strains (Table M8); settings: for MIC: Enterococcus faecalis, E. faecalis 29212
A. baumannii strains = experiment: MIC against A. baumannii strains (Table M8); settings: for MIC: Acinetobacter baumannii, BAA747, A. baumannii BAA747-1
K. pneumoniae strains = experiment: MIC against K. pneumoniae strains (Table M8); settings: for MIC: Klebsiella pneumoniae, K. pneumoniae 10031
H. influenzae strains = experiment: MIC against H. influenzae strains (Table M8); settings: for MIC: Haemophilus influenzae
Text: as §1

[1] = ATCC29213, S. aureus ATCC 29213, read-out: MIC S. aureus (ATCC 29213)
[2] = S. aureus 183, read-out: MIC S. aureus (183)
[3] = S. aureus 506, read-out: MIC S. aureus (506)
[4] = S. aureus 1708, read-out: MIC S. aureus (1708)
[5] = USA300, S. aureus USA300, read-out: MIC S. aureus (USA300)
[6] = S. pneumoniae 160, read-out: MIC S. pneumonae (160)
[7] = S. pneumoniae 1509, read-out: MIC S. pneumoniae (1509)
[8] = S. pneumoniae 1533, read-out: MIC S. pneumoniae (1533)
[9] = S. pneumoniae 1537, read-out: MIC S. pneumoniae (1537)
[10] = S. pneumoniae 49619, read-out: MIC S. pneumoniae (49619)
[11] = H. influenzae 49247, read-out: MIC H. influenzae (49247)
[12] = H. influenzae 49766, read-out: MIC H. influenzae (49766)

Row | Structure (SMILES) | MIC (E. coli strains) [mg/L] | MIC (S. aureus strains; [1]) [mg/L] | MIC (S. aureus strains; [2]) [mg/L] | MIC (S. aureus strains; [3]) [mg/L] | MIC (S. aureus strains; [4]) [mg/L] | MIC (S. aureus strains; [5]) [mg/L] | MIC (S. pneumoniae strains; [6]) [mg/L] | MIC (S. pneumoniae strains; [7]) [mg/L] | MIC (S. pneumoniae strains; [8]) [mg/L] | MIC (S. pneumoniae strains; [9]) [mg/L] | MIC (S. pneumoniae strains; [10]) [mg/L] | MIC (E. faecalis strains) [mg/L] | MIC (A. baumannii strains) [mg/L] | MIC (K. pneumoniae strains) [mg/L] | MIC (H. influenzae strains; [11]) [mg/L] | MIC (H. influenzae strains; [12]) [mg/L] | further results
1 | CC[C@H]1OC(=O)[C@H](C)C(=O)[C@H](C)[C@@H](O[C@@H]2OC(C)CC(N(C)C)C2O)[C@](C)(OC)CC(C)N[C@H](C)[C@H]2N(CCCCn3cc(-c4cccc(N)c4)nn3)C(=O)O[C@]12C (stereo partly drawn) [FSM-30690] |  |  |  |  |  |  |  |  |  |  |  |  |  |  |  |  | MIC E. coli (ATCC 25922) (E. coli strains; E. coli ATCC 25922): >32 mg/L; MIC S. aureus (183) (S. aureus strains; S. aureus 183): >32 mg/L; MIC S. aureus (506) (S. aureus strains; S. aureus 506): >32 mg/L; MIC S. aureus (1708) (S. aureus strains; S. aureus 1708): >32 mg/L; MIC S. aureus (ATCC 29213) (S. aureus strains; S. aureus ATCC 29213): >32 mg/L; MIC S. aureus (USA300) (S. aureus strains; S. aureus USA300): >32 mg/L; MIC S. pneumonae (160) (S. pneumoniae strains; S. pneumoniae 160): >32 mg/L; MIC S. pneumoniae (1509) (S. pneumoniae strains; S. pneumoniae 1509): >32 mg/L; MIC S. pneumoniae (1533) (S. pneumoniae strains; S. pneumoniae 1533): >32 mg/L; MIC S. pneumoniae (1537) (S. pneumoniae strains; S. pneumoniae 1537): >32 mg/L; MIC S. pneumoniae (49619) (S. pneumoniae strains; S. pneumoniae 49619): >32 mg/L; MIC E. faecalis (29212) (E. faecalis strains): >32 mg/L; MIC A. baumannii (BAA747-1) (A. baumannii strains; A. baumannii BAA747-1): >32 mg/L; MIC K. pneumoniae (10031) (K. pneumoniae strains): >32 mg/L; MIC H. influenzae (49247) (H. influenzae strains; H. influenzae 49247): >32 mg/L; MIC H. influenzae (49766) (H. influenzae strains; H. influenzae 49766): >32 mg/L
2 | CC[C@H]1OC(=O)C(C)(F)C(=O)[C@H](C)[C@@H](O[C@@H]2OC(C)CC(N(C)C)C2O)[C@](C)(OC)CC(C)(F)CN[C@H](C)[C@H]2N(CCCCn3cc(-c4cccc(N)c4)nn3)C(=O)O[C@]12C (stereo partly drawn) [FSM-30704] | 32 (≈ 37 µM) | 2 (≈ 2.31 µM) | > 32 | > 32 | 2 (≈ 2.31 µM) | 4 (≈ 4.63 µM) | 0.25 (≈ 0.289 µM) | 1 (≈ 1.16 µM) | > 32 | > 32 | 0.25 (≈ 0.289 µM) | 0.5 (≈ 0.579 µM) | > 32 | 16 (≈ 18.5 µM) | 2 (≈ 2.31 µM) | 8 (≈ 9.26 µM) | 
3 | CC[C@H]1OC(=O)[C@H](CC#N)C(=O)[C@H](C)[C@@H](O[C@@H]2OC(C)CC(N(C)C)C2O)[C@](C)(OC)C[C@@H](C)CN[C@H](C)[C@H]2N(CCCCn3cc(-c4cccc(N)c4)nn3)C(=O)O[C@]12C (stereo partly drawn) [FSM-56160] | > 32 | > 32 | > 32 | > 32 | > 32 | > 32 | 2 (≈ 2.34 µM) | > 32 | > 32 | > 32 | 16 (≈ 18.8 µM) | 8 (≈ 9.38 µM) | > 32 | 8 (≈ 9.38 µM) | 8 (≈ 9.38 µM) | 32 (≈ 37.5 µM) | 
4 | CC[C@H]1OC(=O)[C@H](CC(=O)OC(C)(C)C)C(=O)[C@H](C)[C@@H](O[C@@H]2OC(C)CC(N(C)C)C2O)[C@](C)(OC)C[C@@H](C)CN[C@H](C)[C@H]2N(CCCCn3cc(-c4cccc(N)c4)nn3)C(=O)O[C@]12C (stereo partly drawn) [FSM-56178] | > 32 | > 32 | > 32 | > 32 | > 32 | > 32 | 8 (≈ 8.62 µM) | > 32 | > 32 | > 32 | > 32 | > 32 | > 32 | > 32 | > 32 | > 32 | 

Second part, led by results:

Row | MIC (E. coli strains) [mg/L] | MIC (S. aureus strains; [1]) [mg/L] | MIC (S. aureus strains; [2]) [mg/L] | MIC (S. aureus strains; [3]) [mg/L] | MIC (S. aureus strains; [4]) [mg/L] | MIC (S. aureus strains; [5]) [mg/L] | MIC (S. pneumoniae strains; [6]) [mg/L] | MIC (S. pneumoniae strains; [7]) [mg/L] | MIC (S. pneumoniae strains; [8]) [mg/L] | MIC (S. pneumoniae strains; [9]) [mg/L] | MIC (S. pneumoniae strains; [10]) [mg/L] | MIC (E. faecalis strains) [mg/L] | MIC (A. baumannii strains) [mg/L] | MIC (K. pneumoniae strains) [mg/L] | MIC (H. influenzae strains; [11]) [mg/L] | MIC (H. influenzae strains; [12]) [mg/L] | Structure (SMILES) | further results
5 | 32 (≈ 37.8 µM) | 8 (≈ 9.46 µM) | > 32 | > 32 | 4 (≈ 4.73 µM) | 8 (≈ 9.46 µM) | 0.5 (≈ 0.591 µM) | 4 (≈ 4.73 µM) | > 32 | > 32 | 0.25 (≈ 0.295 µM) | 0.5 (≈ 0.591 µM) | > 32 | 8 (≈ 9.46 µM) | 2 (≈ 2.36 µM) | 8 (≈ 9.46 µM) | CC[C@H]1OC(=O)[C@H](C)C(=O)[C@H](C)[C@@H](O[C@@H]2OC(C)CC(N(C)C)C2O)[C@](C)(OC)CC(C)(F)CN[C@H](C)[C@H]2N(CCCCn3cc(-c4cccc(N)c4)nn3)C(=O)O[C@]12C (stereo partly drawn) [FSM-30686] | 
6 | > 32 | > 32 | > 32 | > 32 | > 32 | > 32 | > 32 | > 32 | > 32 | > 32 | > 32 | > 32 | > 32 | > 32 | > 32 | > 32 | CC[C@H]1OC(=O)[C@H](CC(=O)O)C(=O)[C@H](C)[C@@H](O[C@@H]2OC(C)CC(N(C)C)C2O)[C@](C)(OC)C[C@@H](C)CN[C@H](C)[C@H]2N(CCCCn3cc(-c4cccc(N)c4)nn3)C(=O)O[C@]12C (stereo partly drawn) [FSM-56185] | 
